pKi: −log10 of the molar value. Positions of bridges follow the written chain, without caps; N, C: chain ends. Non-standard residues stand in square brackets, D forms with d. Residues, ends and D or L forms follow the SMILES beside them. ξ: configuration not given here. hCha = N[C@@H](CCC1CCCCC1)C(=O)O; hPhe = N[C@@H](CCc1ccccc1)C(=O)O; R8 = C=CCCCCCC[C@@](C)(N)C(=O)O; Cit = NC(=O)NCCC[C@H](N)C(=O)O; ξαMeD = CC(N)(CC(=O)O)C(=O)O; S5 = C=CCCC[C@](C)(N)C(=O)O; Aib = CC(C)(N)C(=O)O
How the values were obtained:
Mcl-1, Bcl-xL, Bcl-2 = assay: BCL-2 family selectivity profile; assay type: binding; settings: TABLE 8
Description: The binding spectrum of stapled BIM BH3 peptides were tuned for BCL-2 family selectivity. […] ABT-199 is venetoclax, and † represents values reported in the literature.

Mcl-1 = Mcl-1 (Homo sapiens, UniProt Q07820); assay: Ki determination for Mcl-1 (BCL-2 family binding spectrum); settings: read-out: Ki MCL-1
Sequence of Mcl-1 (Q07820 whole entry, species assumed): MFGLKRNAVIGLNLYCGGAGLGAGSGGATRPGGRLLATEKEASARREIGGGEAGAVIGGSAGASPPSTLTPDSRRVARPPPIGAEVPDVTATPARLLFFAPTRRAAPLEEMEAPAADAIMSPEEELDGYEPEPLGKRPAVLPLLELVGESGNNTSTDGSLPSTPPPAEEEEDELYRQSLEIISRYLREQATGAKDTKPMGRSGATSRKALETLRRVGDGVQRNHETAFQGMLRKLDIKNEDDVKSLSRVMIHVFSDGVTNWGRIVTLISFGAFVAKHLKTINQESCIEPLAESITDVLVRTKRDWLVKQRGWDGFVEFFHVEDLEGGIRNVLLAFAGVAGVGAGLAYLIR
Outline: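 Competitive fluorescence polarization assay in which compounds displace a fluoresceinated peptidomimetic macrocycle tracer from Mcl-1. Affinity constants were obtained by nonlinear regression.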

Bcl-2 = Bcl-2 (Homo sapiens, UniProt P10415); assay: Ki determination for Bcl-2 (BCL-2 family binding spectrum); settings: read-out: Ki BCL-2
Sequence of Bcl-2 (P10415 whole entry, species assumed): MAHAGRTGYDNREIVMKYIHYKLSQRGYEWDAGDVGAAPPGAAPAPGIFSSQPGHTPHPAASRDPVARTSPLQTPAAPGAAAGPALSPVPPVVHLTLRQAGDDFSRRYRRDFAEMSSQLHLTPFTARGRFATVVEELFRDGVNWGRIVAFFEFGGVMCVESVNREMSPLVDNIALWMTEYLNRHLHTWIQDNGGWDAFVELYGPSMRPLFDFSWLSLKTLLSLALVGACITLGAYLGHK
Outline: (§1)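 Competitive fluorescence polarization: compounds (1 nM–1 mM) with 25 nM fluoresceinated peptidomimetic macrocycle and 50 nM protein in 140 mM NaCl, 50 mM Tris-HCl pH 7.4, 30 min at room temperature. Constants from nonlinear regression.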

Bcl-xL = Bcl-xL (Homo sapiens, UniProt Q07817); assay: Ki determination for Bcl-xL (BCL-2 family binding spectrum); settings: read-out: Ki BCL-XL
Sequence of Bcl-xL (Q07817 whole entry, species assumed): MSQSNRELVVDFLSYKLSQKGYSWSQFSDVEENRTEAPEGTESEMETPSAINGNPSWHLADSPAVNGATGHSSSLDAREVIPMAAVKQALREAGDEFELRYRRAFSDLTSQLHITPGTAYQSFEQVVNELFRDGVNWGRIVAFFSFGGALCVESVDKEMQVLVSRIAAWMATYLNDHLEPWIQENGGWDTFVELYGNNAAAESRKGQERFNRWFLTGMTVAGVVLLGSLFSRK
Outline: as §1

| SMILES | Profile (Mcl-1, Bcl-xL, Bcl-2) | pKi (Mcl-1) | pKi (Bcl-2) | pKi (Bcl-xL) |
| --- | --- | --- | --- | --- |
| CN(C)CC[C@H](CSc1ccccc1)Nc1ccc(S(=O)(=O)NC(=O)c2ccc(N3CCN(Cc4ccccc4-c4ccc(Cl)cc4)CC3)cc2)cc1[N+](=O)[O-] [ABT-737, reference compound] | Bcl-xL/Bcl-2 selective |  |  |  |
| CC[C@H](C)[C@H](NC(C)=O)C(=O)N[C@@H](Cc1c[nH]c2ccccc12)C(=O)N[C@H](C(=O)N[C@@H](C)C(=O)N[C@@H](CCC(N)=O)C(=O)N[C@@H](C)C(=O)N[C@@H](CC(C)C)C(=O)N[C@@H](C)C(=O)N[C@]1(C)CCCCCCC=CCCC[C@@](C)(C(=O)N[C@@H](Cc2ccc(O)cc2)C(=O)N[C@@H](Cc2ccc(O)cc2)C(=O)N[C@@H](C)C(N)=O)NC(=O)[C@H](CC(N)=O)NC(=O)[C@H](Cc2ccccc2)NC(=O)[C@H](C)NC(=O)[C@H](CC(=O)O)NC(=O)CNC(=O)[C@H]([C@@H](C)CC)NC1=O)[C@@H](C)CC [compound 1673] (Ac-IWIAQALA[R8]IGDAFN[S5]YYA-NH2; staple 9-16) |  | 7.13 | < 6.00 | 6.41 |
| CC[C@H](C)[C@H](NC(C)=O)C(=O)N[C@@H](Cc1c[nH]c2ccccc12)C(=O)N[C@H](C(=O)N[C@@H](C)C(=O)N[C@@H](CCC(N)=O)C(=O)N[C@@H](C)C(=O)N[C@@H](CC(C)C)C(=O)N[C@@H](CCCNC(=N)N)C(=O)N[C@]1(C)CCCCCCC=CCCC[C@@](C)(C(=O)N[C@@H](Cc2ccc(O)cc2)C(=O)N[C@@H](Cc2c[nH]c3ccccc23)C(=O)N[C@@H](C)C(N)=O)NC(=O)[C@H](CC(N)=O)NC(=O)[C@H](Cc2ccccc2)NC(=O)[C@H](C)NC(=O)[C@H](CC(=O)O)NC(=O)CNC(=O)[C@H]([C@@H](C)CC)NC1=O)[C@@H](C)CC [compound 1758] (Ac-IWIAQALR[R8]IGDAFN[S5]YWA-NH2; staple 9-16) |  | 8.41 | 7.63 | 7.81 |
| CC[C@H](C)[C@H](NC(C)=O)C(=O)N[C@@H](Cc1c[nH]c2ccccc12)C(=O)N[C@H](C(=O)N[C@@H](C)C(=O)N[C@@H](CCC(N)=O)C(=O)N[C@@H](C)C(=O)N[C@@H](CC(C)C)C(=O)N[C@@H](Cc1c[nH]cn1)C(=O)N[C@]1(C)CCCCCCC=CCCC[C@@](C)(C(=O)N[C@@H](Cc2ccc(O)cc2)C(=O)N[C@@H](Cc2ccc(O)cc2)C(=O)N[C@@H](C)C(N)=O)NC(=O)[C@H](CC(N)=O)NC(=O)[C@H](Cc2ccccc2)NC(=O)[C@H](CCC(N)=O)NC(=O)[C@H](CC(=O)O)NC(=O)CNC(=O)[C@H]([C@@H](C)CC)NC1=O)[C@@H](C)CC [compound 1658] (Ac-IWIAQALH[R8]IGDQFN[S5]YYA-NH2; staple 9-16) |  | < 6.00 | < 6.00 | < 6.00 |
| CC[C@H](C)[C@H](NC(C)=O)C(=O)N[C@@H](Cc1c[nH]c2ccccc12)C(=O)N[C@H](C(=O)N[C@@H](C)C(=O)N[C@@H](CCC(N)=O)C(=O)N[C@@H](C)C(=O)N[C@@H](CCC1CCCCC1)C(=O)N[C@@H](CCCNC(=N)N)C(=O)N[C@]1(C)CCCCCCC=CCCC[C@@](C)(C(=O)N[C@@H](Cc2ccc(O)cc2)C(=O)N[C@@H](Cc2ccc(O)cc2)C(=O)N[C@@H](C)C(N)=O)NC(=O)[C@H](CC(N)=O)NC(=O)[C@H](Cc2ccccc2)NC(=O)[C@H](C)NC(=O)[C@H](CC(=O)O)NC(=O)CNC(=O)[C@H]([C@@H](C)CC)NC1=O)[C@@H](C)CC [compound 1690] (Ac-IWIAQA[hCha]R[R8]IGDAFN[S5]YYA-NH2; staple 9-16) |  | 8.42 | < 6.00 | < 6.00 |
| CC[C@H](C)[C@H](NC(C)=O)C(=O)N[C@@H](Cc1c[nH]c2ccccc12)C(=O)N[C@H](C(=O)N[C@@H](C)C(=O)N[C@@H](CCC(N)=O)C(=O)N[C@@H](C)C(=O)N[C@@H](CC(C)C)C(=O)N[C@@H](CCCNC(=N)N)C(=O)N[C@]1(C)CCCCCCC=CCCC[C@@](C)(C(=O)N[C@@H](Cc2ccc(O)cc2)C(=O)N[C@@H](Cc2ccc(O)cc2)C(=O)N[C@@H](C)C(N)=O)NC(=O)[C@H](CC(N)=O)NC(=O)[C@H](Cc2ccccc2)NC(=O)[C@H](C)NC(=O)[C@H](CC(N)=O)NC(=O)CNC(=O)[C@H]([C@@H](C)CC)NC1=O)[C@@H](C)CC [compound 1674] (Ac-IWIAQALR[R8]IGNAFN[S5]YYA-NH2; staple 9-16) |  | 6.71 | 6.39 | 6.38 |
| CC[C@H](C)[C@H](NC(C)=O)C(=O)N[C@@H](Cc1c[nH]c2ccccc12)C(=O)N[C@H](C(=O)N[C@@H](C)C(=O)N[C@@H](CCC(N)=O)C(=O)N[C@@H](C)C(=O)N[C@@H](CC(C)C)C(=O)N[C@@H](CCCNC(N)=O)C(=O)N[C@]1(C)CCCCCCC=CCCC[C@@](C)(C(=O)N[C@@H](Cc2ccc(O)cc2)C(=O)N[C@@H](Cc2ccc(O)cc2)C(=O)N[C@@H](C)C(N)=O)NC(=O)[C@H](CC(N)=O)NC(=O)[C@H](Cc2ccccc2)NC(=O)[C@H](C)NC(=O)[C@H](CC(N)=O)NC(=O)CNC(=O)[C@H]([C@@H](C)CC)NC1=O)[C@@H](C)CC [compound 1772] |  | < 6.00 | < 6.00 | < 6.00 |
| CC[C@H](C)[C@H](NC(C)=O)C(=O)N[C@@H](Cc1c[nH]c2ccccc12)C(=O)N[C@H](C(=O)NC(C)(C)C(=O)N[C@@H](CCC(N)=O)C(=O)N[C@@H](C)C(=O)N[C@@H](CC(C)C)C(=O)N[C@@H](CCCNC(=N)N)C(=O)N[C@]1(C)CCCCCCC=CCCC[C@@](C)(C(=O)N[C@@H](Cc2ccc(O)cc2)C(=O)N[C@@H](Cc2ccc(O)cc2)C(=O)N[C@@H](C)C(N)=O)NC(=O)[C@H](CC(N)=O)NC(=O)[C@H](Cc2ccccc2)NC(=O)[C@H](C)NC(=O)C(C)(CC(=O)O)NC(=O)CNC(=O)[C@H]([C@@H](C)CC)NC1=O)[C@@H](C)CC (stereo partly shown) [compound 1707] (Ac-IWI[Aib]QALR[R8]IG[ξαMeD]AFN[S5]YYA-NH2; staple 9-16) |  | < 6.00 | < 6.00 | < 6.00 |
| CC[C@H](C)[C@H](NC(C)=O)C(=O)N[C@@H](Cc1c[nH]c2ccccc12)C(=O)N[C@H](C(=O)N[C@@H](C)C(=O)N[C@@H](CCC(N)=O)C(=O)N[C@@H](C)C(=O)N[C@@H](CCc1ccccc1)C(=O)N[C@@H](CCCNC(=N)N)C(=O)N[C@]1(C)CCCCCCC=CCCC[C@@](C)(C(=O)N[C@@H](Cc2ccc(O)cc2)C(=O)N[C@@H](Cc2ccc(O)cc2)C(=O)N[C@@H](C)C(N)=O)NC(=O)[C@H](CC(N)=O)NC(=O)[C@H](Cc2ccccc2)NC(=O)[C@H](C)NC(=O)[C@H](CC(=O)O)NC(=O)CNC(=O)[C@H]([C@@H](C)CC)NC1=O)[C@@H](C)CC [compound 1692] (Ac-IWIAQA[hPhe]R[R8]IGDAFN[S5]YYA-NH2; staple 9-16) |  | 8.12 | < 6.00 | < 6.00 |
| CC[C@H](C)[C@H](NC(C)=O)C(=O)N[C@@H](Cc1c[nH]c2ccccc12)C(=O)N[C@H](C(=O)N[C@@H](C)C(=O)N[C@@H](C)C(=O)N[C@@H](C)C(=O)N[C@@H](CC(C)C)C(=O)N[C@@H](CCCNC(=N)N)C(=O)N[C@]1(C)CCCCCCC=CCCC[C@@](C)(C(=O)N[C@@H](Cc2ccc(O)cc2)C(=O)N[C@@H](Cc2ccc(O)cc2)C(=O)N[C@@H](C)C(N)=O)NC(=O)[C@H](CC(N)=O)NC(=O)[C@H](Cc2ccccc2)NC(=O)[C@H](CCC(N)=O)NC(=O)[C@H](CC(=O)O)NC(=O)CNC(=O)[C@H]([C@@H](C)CC)NC1=O)[C@@H](C)CC [compound 1652] (Ac-IWIAAALR[R8]IGDQFN[S5]YYA-NH2; staple 9-16) |  | 8.22 | 7.66 | 8.40 |
| CC[C@H](C)[C@H](NC(C)=O)C(=O)N[C@@H](Cc1c[nH]c2ccccc12)C(=O)N[C@H](C(=O)N[C@@H](C)C(=O)N[C@@H](CCC(N)=O)C(=O)N[C@@H](C)C(=O)N[C@@H](C)C(=O)N[C@@H](CCCNC(=N)N)C(=O)N[C@]1(C)CCCCCCC=CCCC[C@@](C)(C(=O)N[C@@H](Cc2ccc(O)cc2)C(=O)N[C@@H](Cc2ccc(O)cc2)C(=O)N[C@@H](C)C(N)=O)NC(=O)[C@H](CC(N)=O)NC(=O)[C@H](Cc2ccccc2)NC(=O)[C@H](C)NC(=O)[C@H](CC(=O)O)NC(=O)CNC(=O)[C@H]([C@@H](C)CC)NC1=O)[C@@H](C)CC [compound 1675] (Ac-IWIAQAAR[R8]IGDAFN[S5]YYA-NH2; staple 9-16) |  | < 6.00 | < 6.00 | < 6.00 |
| CC[C@H](C)[C@H](NC(C)=O)C(=O)N[C@@H](Cc1c[nH]c2ccccc12)C(=O)N[C@H](C(=O)N[C@@H](C)C(=O)N[C@@H](CCC(N)=O)C(=O)N[C@@H](C)C(=O)N[C@@H](CC(C)C)C(=O)N[C@@H](CCCNC(N)=O)C(=O)N[C@]1(C)CCCCCCC=CCCC[C@@](C)(C(=O)N[C@@H](Cc2ccc(O)cc2)C(=O)N[C@@H](Cc2ccc(O)cc2)C(=O)N[C@@H](C)C(N)=O)NC(=O)[C@H](CC(N)=O)NC(=O)[C@H](Cc2ccccc2)NC(=O)[C@H](CCC(N)=O)NC(=O)[C@H](CC(=O)O)NC(=O)CNC(=O)[C@H]([C@@H](C)CC)NC1=O)[C@@H](C)CC [compound 1656] (Ac-IWIAQAL[Cit][R8]IGDQFN[S5]YYA-NH2; staple 9-16) |  | 8.77 | 7.05 | 7.54 |
| CC[C@H](C)[C@H](NC(C)=O)C(=O)N[C@@H](Cc1c[nH]c2ccccc12)C(=O)N[C@H](C(=O)N[C@@H](C)C(=O)N[C@@H](CCC(N)=O)C(=O)N[C@@H](C)C(=O)N[C@@H](CC(C)C)C(=O)N[C@@H](CCCNC(=N)N)C(=O)N[C@]1(C)CCCCCCC=CCCC[C@@](C)(C(=O)N[C@@H](Cc2ccc(O)cc2)C(=O)N[C@@H](Cc2ccc(O)cc2)C(=O)N[C@@H](C)C(N)=O)NC(=O)[C@H](CC(N)=O)NC(=O)[C@H](Cc2ccccc2)NC(=O)[C@H](CCC(N)=O)NC(=O)[C@H](CC(=O)O)NC(=O)[C@H](C)NC(=O)[C@H]([C@@H](C)CC)NC1=O)[C@@H](C)CC [compound 1666] (Ac-IWIAQALR[R8]IADQFN[S5]YYA-NH2; staple 9-16) |  | 6.93 | 7.59 | 8.11 |

From patent publication US20190185518A9, “WARHEAD-CONTAINING PEPTIDOMIMETIC MACROCYCLES AS MODULATORS OF BFL-1” (AILERON Therapeutics, Inc., priority 2017, published 2019)
